Laboratory results from US20050124634A1, “1,4-dihydropyridine compounds, pharmaceutical compositions, and methods for the treatment of cardiovascular disease” (MYOGEN, INC., priority 2003, published 2005).
pEC50, pIC50: −log10 of the molar value. Like-named read-outs stand apart in the source and are kept apart here.

Assays:
[1] = tested on: α-MyHC protein; test: α-MyHC protein levels in NRVM by Western blotting; type: cell-based, rat; settings: NRVM stimulated 3 days; Compound 1 10 nM to 10 μM
Description: FIG. 2 Effect of Compound 1 on α-MyHC protein levels as detected by Western blotting. NRVM are stimulated with Compound 1 at different concentrations for 3 days. Protein extracts are prepared, proteins are separated by SDS-PAGE electrophoresis, transferred to PVDF membrane, and detected with an anti-α-MyHC monoclonal antibody.
As an independent measure of changes in α-MyHC protein levels, NRVM stimulated with Compound 1 were analyzed for α-MyHC protein levels by Western blotting. Protein extracts prepared from NRVM stimulated with a range of concentrations of Compound 1 from 10 nM to 10 μM were separated by SDS-PAGE and transferred to PVDF membrane. Levels of α-MyHC protein were detected by Western blotting using the same anti-α-MyHC monoclonal antibody used in the cytoblot assay. […] This experiment verified that the changes in α-MyHC protein detected in the cytoblot assay were also evident by Western blotting.

[2] = tested on: secretion of atrial natriuretic factor; test: Anti-hypertrophic activity in NRVM, ANF ELISA (ANF secretion); type: cell-based, rat; settings: read-out: IC50 of the ANF ELISA (antihypertrophic activity)
Description: Anti-hypertrophic Activity of Racemic Compound 1 and Purified Enantiomers of Compound 1. Neonatal rat ventricular myocytes (NRVM) were isolated from 1 to 3 day-old Sprague-Dawley rats using enzymatic digestion and myocyte enrichment techniques. NRVM were cultured in serum-containing media for 18 hours. For the continuation of culture, serum-free media was used. Hypertrophy of NRVM was induced using pharmacological stimuli, including phenylephrine, endothelin-1, and […]. Hypertrophic responses were determined using methods including the following: measurement of total cellular protein; secretion of atrial natriuretic factor; determination of cell volume; determination of the expression of so-called fetal genes such as atrial natriuretic factor, beta-myosin heavy chain and alpha-skeletal actin. ANF secretion was the most sensitive assay for measuring hypertrophy, and the IC50 of the ANF ELISA was the measurement used to determine antihypertrophic activity.

[3] = tested on: α-MyHC protein levels; test: α-MyHC cytoblot assay in neonatal rat ventricular myocytes (NRVM); type: cell-based
Description: FIG. 1 Concentration-dependent effect of Compound 1 on α-MyHC protein levels in the cytoblot assay. NRVM are cultured for 3 days in serum-free medium in the presence of differing amounts of Compound 1. At the end of the culture period, NRVM are fixed and analyzed for α-MyHC protein levels using the BA-G5 monoclonal antibody specific for α-MyHC. Results are collected as RLU using a Packard Fusion Plate reader, and normalized to the signal from samples cultured in the absence of compound (control, set to 100%).
Preparation and culture of neonatal rat ventricular myocytes (NRVM) was performed by removing hearts from 1-3 day old rat neonatal pups, along with the atria and lungs. The ventricles were cut into smaller pieces and digested 3 times with collagenase for 20-30 min at 37° C. The myocytes were then separated from other cell types using a Percoll gradient. The myocyte layer was collected, washed 2 times, and plated on tissue culture grade 10 cm Petri dishes for 1-2 hrs. The non-adherent cells (myocytes) were removed and plated in Costar clear view 96 well plates coated with 0.2% gelatin for at least 2 hrs. The gelatin solution was removed, and the myocytes were resuspended in DMEM high glucose media (Mediatech) containing 10% charcoal/dextran treated FBS (Hyclone) and 1% Penicillin-Streptomycin-Glutamine (PSG, Gibco). Ten thousand NRVM were plated per well in a 100 μl volume, and incubated overnight at 37° C. in 5% CO2 in air. The following day, the media was replaced with 100 μl of serum-free DMEM high glucose medium supplemented with PSG and 0.3% Nutridoma-SP (Roche).
Compounds were reconstituted in DMSO at 30 mM, and aliquots were stored at −20° C. A 1:1000 dilution was prepared in serum-free DMEM medium supplemented with PSG and 0.3% Nutridoma, and sonicated for 5 min at room temperature. After sonication, additional 3 fold dilutions were prepared in the same medium. Diluted compound was then added to the NRVM cultures in a volume of 100 μl. A 100 mM thyroid hormone stock solution (T3, Calbiochem) was prepared in 100 mM NaOH and added at a final concentration of 3 nM in DMEM medium supplemented with PSG and 0.3% Nutridoma-SP (Roche). NRVM were cultured for 3 days before detection of α-myosin heavy chain (α-MyHC) protein levels in the cytoblot assay.
For the α-MyHC cytoblot assay, NRVM cultures were analyzed for α-MyHC protein levels after 3 days of incubation. NRVM were washed 2 times with PBS, fixed with methanol for 30 min at 4° C., and washed an additional 2 times with PBS. Blocking solution consisting of PBS with 1% bovine serum albumin (BSA, Fisher Biotech) was added for 1 hr at room temperature before addition of a saturating amount of supernatant containing an α-MyHC specific antibody for 60 min at room temperature (BA-G5 hybridoma, ATTC). Two washes were performed with PBS/1% BSA, and a 1:500 dilution of HRP-goat anti-mouse IgG (Southern Biotech) diluted in PBS/1% BSA was added for 60 min at room temperature. Excess antibody was removed with 3 PBS washes, and a chemiluminescent substrate was added (Pierce SuperSignal West Pico Chemiluminscent Substrate) for 5 min before quantitation on a Packard Fusion Plate Reader.
As shown above in Table 1, Compound 1 increased α-MyHC protein levels as determined by an α-MyHC cytoblot assay. Compound 1 was added to NRVM at concentration ranging from 3 nM to 30 μM. After 3 days of incubation with NRVM, α-MyHC protein levels were detected in the cytoblot assay and quantitated (FIG. 1). […] An increase in α-MyHC protein levels was first detected beginning at 30 nM, with a maximal response observed at 3 μM. In six independent experiments, the concentration of Compound 1 that gave a half-maximal response was on average 60 nM.

[4] = NRVM, 3 days, tested 3 nM to 30 μM
[5] = NRVM, hypertrophy induced by pharmacological stimuli
[6] = tested according to Example 1, read-out: MPE50 for increasing α-MyHC protein levels

CC(=O)C1=C(C)NC(SCC(=O)c2cccc([N+](=O)[O-])c2)=C(C#N)C1c1ccccc1Cl (racemic) [Compound 1]
α-MyHC protein levels by Western blotting [1]: increasing amounts of α-MyHC protein were observed with increasing amounts of Compound 1 | pIC50 ([2]; Rattus norvegicus): 6.37 | % increase of a-MyHC over baseline at 10 mM Cpd ([3]; NRVM, 3 days): 206% | concentration at which an increase in α-MyHC protein levels was first detected [3, 4]: 30 nM | concentration at which maximal response was observed [3, 4]: 3 µM | pEC50 ([3]; Rattus norvegicus, Ventricular myocyte, 72 h, average of six independent experiments, NRVM, 3 days, read-out: concentration that gave a half-maximal response (α-MyHC protein levels)): 7.22

CC(=O)C1=C(C)NC(SCC(=O)c2ccccc2)=C(C#N)C1c1ccccc1Cl (racemic) [Compound 26]
% increase of a-MyHC over baseline at 10 mM Cpd ([3]; NRVM, 3 days): 161%

CC(=O)C1=C(C)NC(SCC(=O)c2cc(Cl)ccc2Cl)=C(C#N)C1c1ccccc1 (racemic) [Compound 27]
% increase of a-MyHC over baseline at 10 mM Cpd ([3]; NRVM, 3 days): 303%

CC(=O)C1=C(C)NC(SCC(=O)c2ccc([N+](=O)[O-])cc2)=C(C#N)C1c1ccccc1 (racemic) [Compound 28]
% increase of a-MyHC over baseline at 10 mM Cpd ([3]; NRVM, 3 days): 125%

CC(=O)C1=C(C)NC(SCC(=O)c2ccc(Cl)c(Cl)c2)=C(C#N)C1c1cccc([N+](=O)[O-])c1 (racemic) [Compound 29]
% increase of a-MyHC over baseline at 10 mM Cpd ([3]; NRVM, 3 days): 201%

CC(=O)C1=C(C)NC(SCC(=O)c2cccc([N+](=O)[O-])c2)=C(C#N)C1c1cccs1 (racemic) [Compound 30]
% increase of a-MyHC over baseline at 10 mM Cpd ([3]; NRVM, 3 days): 156%

CC(=O)C1=C(C)NC(SCC(=O)c2ccc(Cl)c(Cl)c2)=C(C#N)C1c1cccs1 (racemic) [Compound 31]
% increase of a-MyHC over baseline at 10 mM Cpd ([3]; NRVM, 3 days): 151%

CC(=O)C1=C(C)NC(SCC(=O)c2ccc(Cl)cc2Cl)=C(C#N)C1c1cccs1 (racemic) [Compound 32]
% increase of a-MyHC over baseline at 10 mM Cpd ([3]; NRVM, 3 days): 45%

CC(=O)C1=C(C)NC(SCC(=O)c2cc(Cl)ccc2Cl)=C(C#N)C1c1cccs1 (racemic) [Compound 33]
% increase of a-MyHC over baseline at 10 mM Cpd ([3]; NRVM, 3 days): 181%

CC(=O)C1=C(C)NC(SCC(=O)c2ccc(Cl)cc2Cl)=C(C#N)C1c1ccco1 (racemic) [Compound 34]
% increase of a-MyHC over baseline at 10 mM Cpd ([3]; NRVM, 3 days): 97%

CC(=O)C1=C(C)NC(SCC(=O)c2ccc(Cl)c(Cl)c2)=C(C#N)C1c1ccco1 (racemic) [Compound 35]
% increase of a-MyHC over baseline (at 3 µM) ([3]; at 3 µM, NRVM, 3 days): 125 (at 3 mM) %

CC(=O)C1=C(C)NC(SCC(=O)c2ccc([N+](=O)[O-])cc2)=C(C#N)C1c1ccco1 (racemic) [Compound 36]
% increase of a-MyHC over baseline at 10 mM Cpd ([3]; NRVM, 3 days): 115%

CC(=O)C1=C(C)NC(SCC(=O)c2cccc([N+](=O)[O-])c2)=C(C#N)C1c1ccccc1Cl (stereo not drawn) [R-enantiomer]
pIC50 [2, 5]: 5.96 | pEC50 [3, 6]: 6.10

CC(=O)C1=C(C)NC(SCC(=O)c2cccc([N+](=O)[O-])c2)=C(C#N)C1c1ccccc1Cl (stereo not drawn) [S-enantiomer]
pIC50 [2, 5]: 6.41 | pEC50 [3, 6]: < 4.49
